Laboratory results published in patent US20020035243A1, “Transport system conjugates” (priority 1998, published 2002).
Numbered stars: 1 amine (or outer) side, 2 acyl side, 3 side chain; on linkers, the order of the positions; unused ones are H or OH. Ends that are not written are not given here. Ethylenediamine = C(CN[*:2])N[*:1]

How the values were obtained:
[1] = tested on: smooth muscle cells; test: Penetration of carrier-conjugated peptides into smooth muscle cells; immunofluorescence of α-SM-actin polymerization; format: cell-based, Wistar rats; details: 1 mg/ml in cell culture solution, 1 hour after treatment
Experimental: Smooth muscle cells are isolated by enzymatic cleavage from the thoracic aorta of 6-week-old Wistar rats. 10,000 cells are placed on 60 mm Petri dishes and allowed to grow for 5-6 h in DME and 10% foetal calf serum. The cells are incubated with the peptides for approximately 1 hour in the incubator, then washed twice with PBS (0.5 mmol CaCl2, 3 mmol MgCl2), then fixed with 3% parafornaldehyde for 10 min and permeabilized with 0.1% Triton X-100 in PBS for 1 minute, double-immunofluorescent stained for α-SM-actin and total actin with mouse anti-α-SM 1 and rabbit polyclonal anti-actin antibody, respectively, followed by staining with sheep anti-mouse IgG conjugated with tetramethylrhodamine B isothiocyanate or fluorescent isothiocyanate and sheep anti-rabbit IgG conjugated with fluorescent isothiocyanate, respectively. The preparations are washed with PBS and fixed in polyvinyl alcohol buffer. Photographs are taken with a Zeiss Axiophot light microscope using a fluorescein or rhodamine filter:
FIGS. 1-6 show the immunofluorescence photographs of the inhibition of polymerization 1 hour after treatment of the cell cultures with the substances, the concentration of the cell culture solution being 1 mg/ml.

[2] = tested on: smooth muscle cells; test: as above; format: cell-based, Wistar rats; details: c=0.5 mg, 1 mg and 2 mg per ml of cell culture solution
[3] = tested on: α-smooth muscle actin; details: microinjected into cells; cited from earlier work
[4] = tested on: Cloudman S91 melanoma cells; test: Melanin formation in melanoma cells with and without α-MSH (indirect measure of TMP penetration); format: cell-based; details: for OD450 nm (melanin content of lysate): 5 days
Experimental: Cloudman S91 melanoma cells (ATCC CCL-53.1) are cultivated to confluence in DMEM+10% FCS in 24-well culture dishes. The S91 cells (0.5 ml per culture) are incubated for 5 days with and without TMP and with 15 nM α-MSH and then harvested. The TMP/TMP-L is added at least 2 hours before the α-MSH. For determination of the melanin, the medium is discarded and the adhering cells are washed 1× with PBS. The cells are then lysed with 0.1 ml of 0.2 M NaOH and the melanin content of the lysate is measured at 450 nm. The cultures of the experimental series are made up in duplicate, the 2nd batch being used to determine the cell count by the MTT test (Mosmann T., J. of Immun. Methods 1983, 65, 55-63). The cell count indicates growth inhibiting effects and the melanin content is given relative to the cell count (OD450 nm/10^6 cells).

[5] = tested on: HaCaT cells; test: Penetration of carrier-conjugated peptides into keratinocytes; fluorescein-streptavidin staining, confocal microscopy; format: cell-based; details: 4 hours incubation, 25 μM
Experimental: Approx. 5×10^5 HaCaT cells (a gift from Dr. N. E. Fusenig, Deutsches Krebsforschungszentrum Heidelberg) are inoculated into 60 mm culture dishes from a confluent culture (DMEM+5% FCS) and allowed to grow for about 12 hours. The cell cultures are incubated for 4 hours with 25 μM Ac-Leu-Gly-Asp[NH(CH2)5—NH—CO-biotin]-Lys(ε-D,L-6,8-dithiooctanamide)-NH—CH2—CH2—NH-octanoylamide and the cells are washed (2× with FCS-free DMEM) and fixed for 5 min at −20° C. with EtOH/acetic acid (95/5). They are washed three times with PBS and then bound to fluorescein-labelled streptavidin (1000×diluted in PBS+10% FCS). Prior to microscopy the cells were washed a further three times with PBS and dried. Photographs were taken with a confocal scanning laser microscope (Sarastro 2000, Molecular Dynamics) at an excitation wavelength of 488 nm using a 510 nm emission filter.

[6] = S91, 30 nM substance plus 15 nM α-MSH
[7] = S91, 30 nM substance, without α-MSH, untreated control about the same

Compound	fluorescein staining (left picture) [1]	penetration of the peptide into the cell [1]	polymerization of the smooth α-actin filaments [1]	rhodamine staining of the smooth muscle α-actin polymers (right picture) [1]	other results
Ac-Glu-Glu-Glu-Asp-Lys(ε-D,L-6,8-dithiooctanoylamide)-NH—CH2—CH2—NH—C═O—(CH2)6—CH3 (Ac-EEEDK(D,L‑6,8‑dithiooctanoyl)-{Ethylenediamine-octanoyl})	slight	best penetration	very poorly developed	slight	dose-effect relationship [2]: qualitative dose-effect relationship
Ac-Glu-Glu-Glu-Asp-Lys(E-D,L-6,8-dithiooctanoylamide)-NH—CH2—CH2—NH-hexadecanoylamide (Ac-EEEDK(D,L‑6,8‑dithiooctanoyl)-{Ethylenediamine-hexadecanoyl})	slight	good penetration	very poorly developed	slight	–
Ac-Glu-Glu-Glu-Asp-NH2 (Ac-EEED-NH2) [reference compound]	strong	no penetration	completely developed	strong	polymerization of α-smooth muscle actin after microinjection in excess [3]: inhibits
H-Glu-Asp-Tyr-His-Ser-Leu-Tyr-Asn-Ser-His-Leu-Lys(ε-D,L-6,8-dithiooctanamide)-NH—CH2CH2—NH-octanylamide (H-EDYHSLYNSHLK-{Ethylenediamine-octanoyl}; not fully specified (residue 12)) [transporter-bound TMP]	–	–	–	–	OD450 nm (melanin content of lysate) [4, 6]: approximately 0.2; OD450 nm (melanin content of lysate) [4, 7]: approximately 0.2; effect on melanin formation induced by α-MSH ([4]; S91 treated with α-MSH combined with transporter-bound TMP): prevention of melanin formation
CCCCCCCC(=O)NNCCNC(=O)C(N)CCCCNC(=O)CCCCC1CCSS1 [free transporter, H-Lys(ε-D,L-6,8-dithiooctanamide)-NH—CH2CH2—NH—NH-octanoylamide]	–	–	–	–	OD450 nm (melanin content of lysate) [4, 6]: approximately 0.7; OD450 nm (melanin content of lysate) [4, 7]: approximately 0.2
Ac-Leu-Gly-Asp[NH(CH2)5—NH—CO-biotin]-Lys(ε-D,L-6,8-dithio-octanamide)-NH—CH2CH2—NH-octanoylamide [Batch d]	–	–	–	–	fluorescent staining of cells [5]: attractive fluorescent staining
EDYHSLYNSHL [free TMP, reference compound]	–	–	–	–	OD450 nm (melanin content of lysate) [4, 6]: approximately 0.7; OD450 nm (melanin content of lysate) [4, 7]: approximately 0.2
Ac-Leu-Gly-Asp[NH(CH2)5—NH—CO-biotin]-OH [Ac-Leu-Gly-Asp-OH]	–	–	–	–	fluorescent staining of cells [5]: no fluorescent staining
Ac-Glu-Glu-Glu-Asp-Lys-NH—CH2—CH2—NH-hexadecanoylamide (Ac-EEEDK-{Ethylenediamine-hexadecanoyl}) [reference compound]	strong	no penetration	completely developed	strong	–
Ac-Glu-Glu-Glu-Asp-Lys-NH—CH2—CH2—NH—C═O—(CH2)6—CH3 (Ac-EEEDK-{Ethylenediamine-octanoyl}) [reference compound]	strong	no penetration	completely developed	strong	–
Ac-Glu-Glu-Glu-Asp-Lys(ε-D,L-6,8-dithiooctanoylamide)-NH2 (Ac-EEEDK(D,L‑6,8‑dithiooctanoyl)-NH2)	partial	penetration	partially developed	partial	–
α-MSH: stimulant of melanin formation added to S91 cells at 15 nM (Ac-SYSMEHFRWGKPV-NH2; ends and bridges not checked; UniProt P01189 138-150, looked up) [reference compound]	–	–	–	–	OD450 nm (melanin content of lysate) ([4]; S91, 15 nM α-MSH alone): approximately 0.7
